For twelve compounds, IC50 and activity results are on record in patent US20110059962A1, “TRANSCRIPTION FACTOR MODULATING COMPOUNDS AND METHODS OF USE THEREOF” (priority 2009, published 2011).

The target in one test is LcrF (VirF) (Yersinia pestis, UniProt P28808). Description: biochemical. The test is classed as binding, Y. pseudotuberculosis.
Test [1] has as its system Y. pseudotuberculosis cytotoxicity toward J774 cells. Kind of test: microbe, parasite or virus in culture. The note with it: Yersinia pseudotuberculosis, J774, read-out: % Cytotoxicity.
Test [2] relates to P. aeruginosa cytotoxicity toward J774 cells. Kind of test: Inhibition of P. aeruginosa cytotoxicity toward J774 macrophage-like cells, whole cell LDH release assay (CytoTox 96). Also on record: dose or concentration left out as unconfirmed. Particulars: Pseudomonas aeruginosa, J774, read-out: % Cytotoxicity.
A further test has as its target T1, ExsA (Pseudomonas aeruginosa, UniProt P26993).
T1 construct: made in house
T1 sequence (P26993 1-278): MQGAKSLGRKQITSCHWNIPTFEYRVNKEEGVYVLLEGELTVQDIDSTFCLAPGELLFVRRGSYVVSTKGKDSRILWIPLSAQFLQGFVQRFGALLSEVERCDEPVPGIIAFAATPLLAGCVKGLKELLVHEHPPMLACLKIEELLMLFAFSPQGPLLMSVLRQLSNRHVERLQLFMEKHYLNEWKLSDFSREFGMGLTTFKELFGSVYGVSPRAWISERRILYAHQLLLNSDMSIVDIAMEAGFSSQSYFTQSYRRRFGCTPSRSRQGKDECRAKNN
Kind of test: Inhibition of ExsA-DNA binding, cell-free chemiluminescence assay. Also on record: species or system P. aeruginosa.

LcrF (VirF), sequence (P28808 whole entry, looked up): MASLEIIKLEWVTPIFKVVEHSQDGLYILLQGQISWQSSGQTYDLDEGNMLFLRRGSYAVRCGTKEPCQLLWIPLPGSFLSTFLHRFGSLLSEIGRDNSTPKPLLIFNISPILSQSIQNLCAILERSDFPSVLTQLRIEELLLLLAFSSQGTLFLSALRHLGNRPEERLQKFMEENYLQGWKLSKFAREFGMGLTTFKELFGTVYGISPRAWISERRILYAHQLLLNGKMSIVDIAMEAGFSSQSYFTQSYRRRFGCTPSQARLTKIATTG

A word on the IC50: it is the concentration that gives 50% inhibition. On to `O=C(/C=C/c1ccc(F)cc1)Nc1ccc(-c2nc3ccc(Cl)cc3n2O)cc1` [AG], for which the half-maximal inhibitory concentration (IC50) against LcrF (VirF) was more than 50 µM. In addition, the activity at 50 µg/mL in test [1] fell in the range of 75 to 99%. Besides, in test [2], the activity lay within 75 to 99%.
The compound `O=C(O)Cc1cc([N+](=O)[O-])cc2c1nc(-c1ccc(NC(=O)/C=C/c3ccc(F)cc3)cc1)n2O` [AH] came in with an IC50 against LcrF (VirF) of 10 to 25 µM. Besides, the activity at 50 µg/mL in test [1] is 75 to 99%. Besides, the activity in test [2] lay in the range of 75 to 99%.
In the case of `CC(=O)c1ccc(/C=C/C(=O)Nc2ccc(-c3nc4ccc(Cl)cc4n3O)cc2)cc1` [B], the figures for the IC50 against LcrF (VirF) and on ExsA were more than 50 µM and 10 to 25 µM, respectively. Further, the activity at 50 µg/mL in test [1] fell in the range of 75 to 99%. Besides, the activity in test [2] lay within 75 to 99%.
For `CC(=O)c1ccc(/C=C/C(=O)Nc2ccc(-c3nc4ccc(C#N)cc4n3O)cc2)cn1` [Compound A, (E)-3-(6-Acetyl-pyridin-3-yl)-N-[4-(6-cyano-1-hydroxy-1H-benzoimidazol-2-yl)-phenyl]-acrylamide], the IC50 on LcrF (VirF) was 25 to 50 µM; at ExsA it was more than 50 µM. The activity at 50 µg/mL in test [1] is less than 75%. Further, the activity in test [2] was less than 75%.
`O=C(O)Cc1cc([N+](=O)[O-])cc2c1nc(-c1ccc(NC(=O)c3ccc(-n4ccnc4)cc3)cc1)n2O` [Compound AA, {1-Hydroxy-2-[4-(4-imidazol-1-yl-benzoylamino)-phenyl]-6-nitro-1H-benzoimidazol-4-yl}-acetic acid] gave an IC50 at LcrF (VirF) of less than 10 µM. In addition, the activity at 50 µg/mL in test [1] is less than 75%. In test [2], the activity is less than 75%.
Consider `CC(=O)c1ccc2nc(-c3ccc(NC(=O)/C=C/c4ccc(F)cc4)cc3)n(O)c2c1` [Compound AB, (E)-N-[4-(6-Acetyl-1-hydroxy-1H-benzoimidazol-2-yl)-phenyl]-3-(4-fluoro-phenyl)-acrylamide], for which, at LcrF (VirF), the half-inhibitory concentration (IC50) fell in the range of 25 to 50 µM. Moreover, the activity at 50 µg/mL in test [1] was 75 to 99%. Besides, the activity in test [2] was in the range of 75 to 99%.
`O=C(/C=C/c1ccc(F)cc1)Nc1ccc(-c2nc3ccc(F)cc3n2O)cc1` [Compound AC, (E)-N-[4-(6-Fluoro-1-hydroxy-1H-benzoimidazol-2-yl)-phenyl]-3-(4-fluoro-phenyl)-acrylamide] came in with an IC50 at LcrF (VirF) of more than 50 µM. In test [1], the activity at 50 µg/mL was 75 to 99%. Moreover, the activity in test [2] lay within 75 to 99%.
On to `CS(=O)(=O)c1ccc2nc(-c3ccc(NC(=O)/C=C/c4ccc(F)cc4)cc3)n(O)c2c1` [Compound AD, (E)-3-(4-Fluoro-phenyl)-N-[4-(1-hydroxy-6-methanesulfonyl-1H-benzoimidazol-2-yl)-phenyl]-acrylamide], for which the IC50 against LcrF (VirF) is more than 50 µM. In addition, the activity at 50 µg/mL in test [1] was 75 to 99%. Also, the activity in test [2] was 75 to 99%.
Consider `O=C(/C=C/c1ccc(F)cc1)Nc1ccc(-c2nc3ccccc3n2O)cc1` [Compound AE, (E)-3-(4-Fluoro-phenyl)-N-[4-(1-hydroxy-1H-benzoimidazol-2-yl)-phenyl]-acrylamide], for which, on LcrF (VirF), the half-maximal inhibitory concentration (IC50) was more than 50 µM. The activity at 50 µg/mL in test [1] was in the range of 75 to 99%. Besides, the activity in test [2] was 75 to 99%.
On to `O=C(/C=C/c1ccc(F)cc1)Nc1ccc(-c2nc3ccc(C(F)(F)F)cc3n2O)cc1` [Compound AF, (E)-3-(4-Fluoro-phenyl)-N-[4-(1-hydroxy-6-trifluoromethyl-1H-benzoimidazol-2-yl)-phenyl]-acrylamide], for which the IC50 against LcrF (VirF) was more than 50 µM. The activity at 50 µg/mL in test [1] is 75 to 99%. Moreover, the activity in test [2] is 75 to 99%.
`O=C(/C=C/c1ccc(F)cc1)Nc1ccc(-c2nc3ccc(C(=O)O)cc3n2O)cc1` [Compound AI, 2-{4-[(E)-3-(4-Fluoro-phenyl)-acryloylamino]-phenyl}-3-hydroxy-3H-benzoimidazole-5-carboxylic acid]: the IC50 on LcrF (VirF) lay within 25 to 50 µM. The activity at 50 µg/mL in test [1] was less than 75%. Also, the activity in test [2] lay within 75 to 99%.
Regarding `O=C(Nc1ccc(-c2nc3ccc([N+](=O)[O-])cc3n2O)cc1)c1ccc(-n2cccn2)nc1` [Compound I], the IC50 on LcrF (VirF) and at ExsA was 25 to 50 µM each time. Further, the activity at 50 µg/mL in test [1] is less than 75%. Also, in test [2], the activity fell in the range of 75 to 99%.
